Assay results taken from PubChem BioAssay (NCI).
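Results reflect a 48-hour exposure of cells in 96-well plates to compound at five concentrations. TGI is the concentration that stops growth completely.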

Experiments:
Assay in all cases: NCI tumour cell line growth inhibition, 48 h
[1] = test system: 786-0 renal
[2] = test system: A498 renal
[3] = test system: A549 NSCLC
[4] = test system: ACHN renal
[5] = test system: BT-549 breast
[6] = test system: CAKI-1 renal
[7] = test system: COLO 205 colon
[8] = test system: DU-145 prostate
[9] = test system: EKVX NSCLC
[10] = test system: HCT-116 colon
[11] = test system: HCT-15 colon
[12] = test system: HOP-62 NSCLC
[13] = test system: HOP-92 NSCLC
[14] = test system: HT29 colon
[15] = test system: IGROV1 ovarian
[16] = test system: KM12 colon
[17] = test system: LOX IMVI melanoma
[18] = test system: M14 melanoma
[19] = test system: MALME-3M melanoma
[20] = test system: MDA-MB-231 breast
[21] = test system: MDA-MB-435
[22] = test system: MDA-N
[23] = test system: MOLT-4 leukemia
[24] = test system: NCI-H226 lung
[25] = test system: NCI-H23 lung
[26] = test system: NCI-H460 lung
[27] = test system: NCI-H522 lung
[28] = test system: NCI/ADR-RES ovarian
[29] = test system: OVCAR-3 ovarian
[30] = test system: OVCAR-4 ovarian
[31] = test system: OVCAR-5 ovarian
[32] = test system: OVCAR-8 ovarian
[33] = test system: RPMI-8226 leukemia
[34] = test system: RXF 393 renal
[35] = test system: SF-268 CNS
[36] = test system: SF-295 CNS
[37] = test system: SF-539 CNS
[38] = test system: SK-MEL-28 melanoma
[39] = test system: SK-MEL-5 melanoma
[40] = test system: SK-OV-3 ovarian
[41] = test system: SN12C renal
[42] = test system: SNB-19 CNS
[43] = test system: SNB-75 CNS
[44] = test system: SW-620 colon
[45] = test system: T-47D breast
[46] = test system: TK-10 renal
[47] = test system: U251 CNS
[48] = test system: UACC-257 melanoma
[49] = test system: UO-31 renal
[50] = test system: CCRF-CEM leukemia
[51] = test system: HCC-2998 colon
[52] = test system: K-562 leukemia
[53] = test system: MCF7 breast
[54] = test system: PC-3 prostate
[55] = test system: SK-MEL-2 melanoma
[56] = test system: SR leukemia
[57] = test system: UACC-62 melanoma

Measured: TGI

Cn1c(C(C#N)c2cc(Cl)ncn2)nc2ccccc21 (stereo not drawn)
not listed: [50] | [51] | [52] | [53] | [54] | [55] | [56] | [57]
> 100 µM: all other assays above

O=S(=O)(O)CCS
not listed: [5] | [33] | [46]
> 100 µM: all other assays above
